{
  "source": "patent US20080132569A1",
  "about": "“Antifungal Compositions for Inhibiting Growth of Wood Decay Fungi and Use Thereof” (priority 2006, published 2008)",
  "key": {"[1]": {"assay": "Antifungal assay, mycelium growth on PDA (fungi)", "conditions": "soft rot, Cu tolerant, and brown rot fungi"}, "[2]": {"assay": "Antifungal assay, mycelium growth on PDA containing the chemical", "conditions": "C. globosum; for Antifungal index (%): Table 2"}, "[3]": {"assay": "Antifungal activity on paper (CNS 2690, TAPPI T487 cm-93)", "conditions": "C. globosum, 14 days"}, "[4]": {"assay": "Antifungal assay, mycelium growth on PDA containing the chemical", "conditions": "L. sulphureus"}, "[5]": {"assay": "Antifungal activity on paper (CNS 2690, TAPPI T487 cm-93)", "conditions": "A. niger, 14 days"}, "[6]": {"assay": "Antifungal assay, mycelium growth on PDA containing the chemical", "conditions": "P. placenta; for Antifungal index (%): Table 2"}, "[7]": {"assay": "Antifungal assay, mycelium growth on PDA containing the chemical", "conditions": "L. betulina; for Antifungal index: Example 3, FIG. 2(A)"}, "[8]": {"assay": "Antifungal activity on paper (CNS 2690, TAPPI T487 cm-93)", "conditions": "A. terreus, 14 days"}, "[9]": {"assay": "Antifungal assay, mycelium growth on PDA containing the chemical", "conditions": "W. extensa; for Antifungal index (%): Table 2"}, "[10]": {"assay": "Antifungal assay, mycelium growth on PDA containing the chemical", "conditions": "G. trabeum"}, "[11]": {"assay": "Antifungal assay, mycelium growth on PDA containing the chemical", "conditions": "T. versicolor"}, "[12]": {"assay": "Antifungal assay, mycelium growth on PDA containing the chemical", "conditions": "A. taxa; for Antifungal index (%): Table 2"}, "[13]": {"assay": "Antifungal assay, mycelium growth on PDA containing the chemical", "conditions": "F. pinicola; for Antifungal index (%): Table 2"}, "[14]": {"assay": "Antifungal assay, mycelium growth on PDA (fungi)", "conditions": "100 μg/ml; W. extensa, P placenta, L. sulphureus, G. trabeum and F. pinicola"}, "[15]": {"assay": "Antifungal assay, mycelium growth on PDA (fungi)"}, "[16]": {"assay": "Antifungal assay, mycelium growth on PDA containing the chemical", "conditions": "S. commune; for Antifungal index (%): Table 2"}, "[17]": {"conditions": "100 μg/cm^2 on filter paper, listed as octyl gallate"}, "[18]": {"conditions": "Example 1, FIG. 1(A), read-out: IC50 (concentration that inhibited 50% of the mycelium growth)"}, "[19]": {"conditions": "400 μg/cm^2 on filter paper, listed as octyl gallate"}},
  "note": "Where two headings read alike, the source gives them in different places.",
  "data": [
    {"smiles": "CCCCCCCCOC(=O)c1cc(O)c(O)c(O)c1", "note": "[Octyl gallate, octyl gallate]", "values": [
      {"measurement": "IC50 value", "setting": "[1]", "result": "less than 50 μg/ml"},
      {"measurement": "Antifungal index (%)", "setting": "[2]; 25 μg/ml", "result": 82, "unit": "%"},
      {"measurement": "Antifungal index (%)", "setting": "[2]; 50 μg/ml", "result": 100, "unit": "%"},
      {"measurement": "Antifungal index (%)", "setting": "[2]; 200 μg/ml", "result": 100, "unit": "%"},
      {"measurement": "IC50 value", "setting": "[2]; Table 3", "result": "<25", "unit": "µg/mL"},
      {"measurement": "Percent inhibition ratio", "setting": "[3]; 100 μg/cm^2 on filter paper", "result": "100 ± 0", "unit": "%"},
      {"measurement": "Percent inhibition ratio", "setting": "[3]; [17]", "result": 100, "unit": "%"},
      {"measurement": "Percent inhibition ratio", "setting": "[3]; 400 μg/cm^2 on filter paper", "result": "100 ± 0", "unit": "%"},
      {"measurement": "Antifungal index (%)", "setting": "[4]; 50 μg/ml, Table 2", "result": 85, "unit": "%"},
      {"measurement": "Antifungal index (%)", "setting": "[4]; 100 μg/ml, Table 1", "result": "100 ± 0", "unit": "%"},
      {"measurement": "Antifungal index (%)", "setting": "[4]; 100 μg/ml, Table 2", "result": 96, "unit": "%"},
      {"measurement": "Antifungal index (%)", "setting": "[4]; 200 μg/ml, Table 2", "result": 100, "unit": "%"},
      {"measurement": "IC50", "setting": "[4]; [18]", "result": 40, "unit": "µM"},
      {"measurement": "IC50 value", "setting": "[4]; Table 3", "result": 50.6, "unit": "µg/mL"},
      {"measurement": "Percent inhibition ratio", "setting": "[5]; 100 μg/cm^2 on filter paper", "result": "72 ± 7.6", "unit": "%"},
      {"measurement": "Percent inhibition ratio", "setting": "[5]; [17]", "result": 72, "unit": "%"},
      {"measurement": "Percent inhibition ratio", "setting": "[5]; 400 μg/cm^2 on filter paper", "result": "99 ± 1.0", "unit": "%"},
      {"measurement": "Percent inhibition ratio", "setting": "[5]; [19]", "result": 99, "unit": "%"},
      {"measurement": "Antifungal index (%)", "setting": "[6]; 25 μg/ml", "result": 58, "unit": "%"},
      {"measurement": "Antifungal index (%)", "setting": "[6]; 50 μg/ml", "result": 75, "unit": "%"},
      {"measurement": "Antifungal index (%)", "setting": "[6]; 100 μg/ml", "result": 82, "unit": "%"},
      {"measurement": "Antifungal index (%)", "setting": "[6]; 200 μg/ml", "result": 84, "unit": "%"},
      {"measurement": "IC50 value", "setting": "[6]; Table 3", "result": "<25", "unit": "µg/mL"},
      {"measurement": "Antifungal index", "setting": "[7]; 25 μg/ml", "result": 16, "unit": "%"},
      {"measurement": "Antifungal index (%)", "setting": "[7]; 25 μg/ml, Table 2", "result": 16, "unit": "%"},
      {"measurement": "Antifungal index (%)", "setting": "[7]; 50 μg/ml, Table 2", "result": 28, "unit": "%"},
      {"measurement": "Antifungal index", "setting": "[7]; 100 μg/ml", "result": 42, "unit": "%"},
      {"measurement": "Antifungal index (%)", "setting": "[7]; 100 μg/ml, Table 1", "result": "43 ± 2.5", "unit": "%"},
      {"measurement": "Antifungal index (%)", "setting": "[7]; 100 μg/ml, Table 2", "result": 41, "unit": "%"},
      {"measurement": "Antifungal index (%)", "setting": "[7]; 200 μg/ml, Table 2", "result": 88, "unit": "%"},
      {"measurement": "IC50", "setting": "[7]; [18]", "result": 470, "unit": "µM"},
      {"measurement": "IC50 value", "setting": "[7]; Table 3", "result": 137.6, "unit": "µg/mL"},
      {"measurement": "Percent inhibition ratio", "setting": "[8]; 100 μg/cm^2 on filter paper", "result": "51 ± 4.6", "unit": "%"},
      {"measurement": "Percent inhibition ratio", "setting": "[8]; [17]", "result": 51, "unit": "%"},
      {"measurement": "Percent inhibition ratio", "setting": "[8]; 400 μg/cm^2 on filter paper", "result": "94 ± 8.5", "unit": "%"},
      {"measurement": "Percent inhibition ratio", "setting": "[8]; [19]", "result": 94, "unit": "%"},
      {"measurement": "Antifungal index (%)", "setting": "[9]; 25 μg/ml", "result": 3, "unit": "%"},
      {"measurement": "Antifungal index (%)", "setting": "[9]; 50 μg/ml", "result": 50, "unit": "%"},
      {"measurement": "Antifungal index (%)", "setting": "[9]; 100 μg/ml", "result": 75, "unit": "%"},
      {"measurement": "Antifungal index (%)", "setting": "[9]; 200 μg/ml", "result": 64, "unit": "%"},
      {"measurement": "IC50 value", "setting": "[9]; Table 3", "result": 50, "unit": "µg/mL"},
      {"measurement": "Antifungal index", "setting": "[10]; 25 μg/ml, Example 3, FIG. 2(B)", "result": 30, "unit": "%"},
      {"measurement": "Antifungal index (%)", "setting": "[10]; 50 μg/ml, Table 2", "result": 49, "unit": "%"},
      {"measurement": "Antifungal index (%)", "setting": "[10]; 100 μg/ml, Table 1", "result": "85 ± 26.2", "unit": "%"},
      {"measurement": "Antifungal index (%)", "setting": "[10]; 100 μg/ml, Table 2", "result": 77, "unit": "%"},
      {"measurement": "Antifungal index (%)", "setting": "[10]; 200 μg/ml, Table 2", "result": 93, "unit": "%"},
      {"measurement": "IC50", "setting": "[10]; [18]", "result": 240, "unit": "µM"},
      {"measurement": "IC50 value", "setting": "[10]; Table 3", "result": 50.8, "unit": "µg/mL"},
      {"measurement": "Antifungal index (%)", "setting": "[11]; 25 μg/ml, Table 2", "result": 37, "unit": "%"},
      {"measurement": "Antifungal index (%)", "setting": "[11]; 50 μg/ml, Table 2", "result": 50, "unit": "%"},
      {"measurement": "Antifungal index (%)", "setting": "[11]; 100 μg/ml, Table 1", "result": "69 ± 9.1", "unit": "%"},
      {"measurement": "Antifungal index (%)", "setting": "[11]; 100 μg/ml, Table 2", "result": 69, "unit": "%"},
      {"measurement": "Antifungal index (%)", "setting": "[11]; 200 μg/ml, Table 2", "result": 85, "unit": "%"},
      {"measurement": "IC50", "setting": "[11]; [18]", "result": 160, "unit": "µM"},
      {"measurement": "IC50 value", "setting": "[11]; Table 3", "result": 173, "unit": "µg/mL"},
      {"measurement": "Antifungal index (%)", "setting": "[12]; 25 μg/ml", "result": 73, "unit": "%"},
      {"measurement": "Antifungal index (%)", "setting": "[12]; 50 μg/ml", "result": 100, "unit": "%"},
      {"measurement": "Antifungal index (%)", "setting": "[12]; 200 μg/ml", "result": 100, "unit": "%"},
      {"measurement": "IC50 value", "setting": "[12]; Table 3", "result": "<25", "unit": "µg/mL"},
      {"measurement": "Antifungal index (%)", "setting": "[13]; 25 μg/ml", "result": 52, "unit": "%"},
      {"measurement": "Antifungal index (%)", "setting": "[13]; 50 μg/ml", "result": 78, "unit": "%"},
      {"measurement": "Antifungal index (%)", "setting": "[13]; 100 μg/ml", "result": 94, "unit": "%"},
      {"measurement": "Antifungal index (%)", "setting": "[13]; 200 μg/ml", "result": 100, "unit": "%"},
      {"measurement": "IC50 value", "setting": "[13]; Table 3", "result": "<25", "unit": "µg/mL"},
      {"measurement": "inhibition (antifungal index), span over five fungi", "setting": "[14]", "result": "75˜96%"},
      {"measurement": "inhibition (antifungal index), span over three fungi", "setting": "[15]; 100 μg/ml, L. betulina, T versicolor and S. commune", "result": "41˜69%"},
      {"measurement": "IC50 value", "setting": "[15]; white rot fungi", "result": "less than 200 μg/ml"},
      {"measurement": "Antifungal index (%)", "setting": "[16]; 25 μg/ml", "result": 16, "unit": "%"},
      {"measurement": "Antifungal index (%)", "setting": "[16]; 50 μg/ml", "result": 40, "unit": "%"},
      {"measurement": "Antifungal index (%)", "setting": "[16]; 100 μg/ml", "result": 60, "unit": "%"},
      {"measurement": "Antifungal index (%)", "setting": "[16]; 200 μg/ml", "result": 83, "unit": "%"},
      {"measurement": "IC50 value", "setting": "[16]; Table 3", "result": 114, "unit": "µg/mL"}
    ]}
  ]
}
